Experimental data from paper PMC5505244, “Crystal structure of a family 6 cellobiohydrolase from the basidiomycete Phanerochaete chrysosporium” (Acta Crystallographica. Section F, Structural Biology …, 2017).

What was measured:
PcCel6A [1] = target: T1, PcCel6A (Phanerodontia chrysosporium, UniProt Q02321); test: hydrolysis in crystal soak, inferred from bound product in X-ray structure; type: biochemical; details: pH 5.0, 10 h soak; intact compound not seen in the structure
T1 construct: gene cbhII; catalytic domain only; N-terminal CBM and linker (residues 1-81) deleted; pPICZalpha vector, secreted from Pichia pastoris; about 37 kDa; nonglycosylated in crystal; model residues 82-439; one molecule in asymmetric unit

PcCel6A [2] = target: T1, PcCel6A; test: X-ray crystal structure, […] Å; type: binding; details: crystal soaked with pNPG3 for 10 h, pH 5.0; active site, subsites +1 and +2; loops closed; putative Tris at subsite -1

T1 sequence (Q02321 entry or part of it): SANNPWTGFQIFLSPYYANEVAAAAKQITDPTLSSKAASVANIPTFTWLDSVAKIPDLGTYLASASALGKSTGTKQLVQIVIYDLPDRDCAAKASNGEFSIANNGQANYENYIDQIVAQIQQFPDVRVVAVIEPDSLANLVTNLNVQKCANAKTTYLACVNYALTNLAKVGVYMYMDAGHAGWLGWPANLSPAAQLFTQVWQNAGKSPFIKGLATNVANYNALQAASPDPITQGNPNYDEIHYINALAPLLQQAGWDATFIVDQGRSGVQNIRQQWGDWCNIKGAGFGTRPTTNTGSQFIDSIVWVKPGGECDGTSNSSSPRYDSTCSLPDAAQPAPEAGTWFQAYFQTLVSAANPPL

O=[N+]([O-])c1ccc(O[C@@H]2O[C@H](CO)[C@@H](O[C@@H]3O[C@H](CO)[C@@H](O[C@@H]4O[C@H](CO)[C@@H](O)[C@H](O)[C@H]4O)[C@H](O)[C@H]3O)[C@H](O)[C@H]2O)cc1 [p-nitrophenyl β-D-cellotrioside]
hydrolysis in crystal soak, inferred from bound product in X-ray structure (PcCel6A [1]): The observed α-cellobiose is considered to be a product of the hydrolysis of pNPG3

OC[C@H]1O[C@@H](O[C@H]2[C@H](O)[C@@H](O)[C@@H](O)O[C@@H]2CO)[C@H](O)[C@@H](O)[C@@H]1O [α-cellobiose]
X-ray crystal structure, 2.1 Å (PcCel6A [2]): The ligand-bound structure obtained from the pNPG3-soaked crystal contained one α-cellobiose molecule
